We go through 11 compounds from US20100152275A1, “Drug or Supplement Combination with Conjugated Linoleic Acid for Fat Loss in Mammals” (Kaloness, Inc., priority 2008, published 2010).

The subject of series [1] is acetyl CoA carboxylase (ACC). As to conditions: for Phospho-ACC amount: 3T3-L1 adipocytes, LA = 1.
Description: (§3) The level of phosphorylated AMPK and acetyl CoA carboxylase (ACC), one of AMPK's known in vivo substrates, was measured at various times after treating 3T3-L1 adipocytes with either 100 uM linoleic acid or trans-10, cis-12 CLA (t10c12 CLA). […] The total amounts of AMPK and ACC were also determined with antibodies that recognize the respective proteins regardless of phosphorylation status.
(§4) The phosphorylation levels of AMPK and ACC were then determined after treating 3T3-L1 adipocytes with either metformin, AICAR, or t10c12 CLA alone or in combination.
Series [2] concerns AMPK. The experiment in a line: AMPK phosphorylation in 3T3-L1 adipocytes, western blot. The series is classed as cell-based, Mouse. As to conditions: for Phospho-AMPK Amount: 3T3-L1 adipocytes, LA = 1.
Description: as §3, §4
Series [3] has as its system 3T3-L1 adipocytes. The experiment in a line: Triglyceride levels (delipidation) in 3T3-L1 adipocytes. As to conditions: for TG levels: differentiated 3T3-L1 adipocytes, alone or combined with t10c12 CLA; for reduced triglyceride levels by, relative to the linoleic acid control: Example 15, CLA 50 uM. The series is classed as cell-based, Mouse. The method, then:
Two well known AMPK activators with very different chemical structures are metformin and AICAR. Metformin is from the class of biguanides while AICAR is a ribonucleoside analog that is phosphorylated in the cell to form ZMP, an AMP mimetic. […] A lower 50 μM level of t10c12 CLA was used in the experiment to better measure any effects of the combinations.
We recognize the complex medical effects and dangers of ATRA, retinoids, or rexinoids, has limited their therapeutic use in humans.
We tested the role of PPARβ/δ with the use of GW0742, a PPARβ/δ agonist.
Activating ligands include hydroxysterols such as 24(S)-Hydroxycholesterol or 24(S),25-epoxycholesterol.
We treated 3T3-L1 adipocytes with control or CLA fatty acids, with or without a statin drug.

A short description of series [4]: 14 d feeding trial of t10c12 CLA and metformin in ML mice. The series is classed as in vivo. As to conditions: for fat pad weights relative to control untreated mice: 0.25% CLA, either dose of metformin; for change in body weight (BW) / final weight of the epididymal (EPI) / final weight of the retroperitoneal (RP): mean ± SEM. The method, then: (§1) FIG. 1. […] Forty-two MC and 42 mL mice were fed diets containing soy oil or soy oil with 0.25% t10c12 CLA and drinking water containing either none, 0.33 mg/ml, or 3.33 mg/ml metformin (Met) for 14 days (n=6 mice per treatment). A positive control diet contained the standard amount of 0.5% t10c12 CLA without any metformin. Body weights were recorded and retroperitoneal (RP) and epididymal fat pads from all the mice were isolated and weighed.

For series [5], the system named is 3T3-L1 fibroblasts. The experiment in a line: Integrated stress response (ISR) in 3T3-L1 fibroblasts, microarray. As to conditions: 3T3-L1 fibroblasts prior to differentiation. The series is classed as cell-based, Mouse. An excerpt: (§2) We have microarray analyses of 3T3-L1 fibroblasts prior to differentiation and from liver tissues in mice treated with t10c12 CLA that support the hypothesis that t10c12 CLA is selective in the types of cells responding. The ISR is a cell response that most cells are capable of inducing and is a key part of the response to t10c12 CLA [5, 19].

Series [6] has as its system WAT of mice. Nature of the series: Microarray analysis of WAT of mice fed t10c12 CLA. The format is in vivo. The text has this:
Recent microarray analyses of the WAT of mice fed t10c12 CLA by our laboratory and others found three major trends. […] This initial inflammatory response is transient: the expression levels of many of these genes returns to normal levels following the first week of treatment, and the remaining genes are expressed at lower levels than the initial response. […] In particular, carnitine palmitoyltransferase I (CPT1), uncoupling protein 1 (UCP1), and uncoupling protein 2 (UCP2) show increases. The response in UCP1 and UCP2 genes is quite strong, as the levels of the induced mRNAs are in the 95th and 90th percentiles of the most abundant mRNAs in the adipocyte, respectively. UCP1 is usually exclusively expressed in brown adipose tissue, so this is a remarkable change in expression pattern with likely physiological effects. There is not a consensus that increased metabolic heat output occurs in t10c12 CLA treatments, but this increased metabolism has been observed in some studies.

In series [7] the test system is liver tissues. Nature of the series: Microarray analysis of liver tissues of mice treated with t10c12 CLA. The format is in vivo.
Description: as §2

The subject of series [8] is MCP-1 mRNA. Nature of the series: MCP-1 mRNA by real time PCR in 3T3-L1 adipocytes. The format is cell-based, Mouse. As to conditions: 12 hrs. The method, then: CLA has been reported to cause inflammation which is considered a non-healthy condition. […] Metformin or AICAR was used in combination with t10c12 CLA in the media containing the adipocytes for 12 hrs. RNA was isolated and the inflammatory response, as measured by MCP-1 (an inflammatory cytokine) mRNA levels, was determined by real time PCR of the reverse transcribed RNA.

Series [9] is described as follows: 14 d feeding trial of t10c12 CLA and metformin in MC mice. The series is classed as in vivo. Particulars: mean ± SEM. The method, then:
as §1

Series [10] concerns 3T3-L1 adipocytes. The experiment in a line: Microarray gene expression changes in 3T3-L1 adipocytes. The format is cell-based, Mouse. Particulars: compared with t10c12 CLA, data not shown.
The conditions of series [11]: reference [18]; cited from earlier work.
The test system of series [12] is adipocytes. Nature of the series: Inflammatory response to phenformin in adipocytes. The series is classed as cell-based. Particulars: compared with metformin.
Where [13] appears, read: 100 uM, from 30 min, persisted 16 hr, vs linoleic acid.

Read-outs that look alike come from different tables or passages of the source.

Regarding `c1cc(-c2cnn3cc(-c4ccc(OCCN5CCCCC5)cc4)cnc23)ccn1` [compound C, reference compound], the “phosphorylation of Acetyl-Coenzyme A Carboxylase (ACC)” value in series [1] (Example 2, western blot) is reported as “inhibited”. Further, in series [2] (Example 2, western blot), the “phosphorylation of AMPK” value was “inhibited”.

In the case of `CC(C)[C@@H](O)CC[C@@H](C)[C@H]1CC[C@H]2[C@@H]3CC=C4C[C@@H](O)CC[C@]4(C)[C@H]3CC[C@]12C` [24(S)-Hydroxycholesterol], the TG levels result in series [3] was “did not reduce TG levels”.

Turning to `CCCCC/C=C\C=C\CCCCCCCCC(=O)O` [CLA, trans-10, cis-12 CLA], the “fat pad weights relative to control untreated mice” value in [4] is recorded as “no significant change”. For the same compound, the change in body weight (BW) in [4] (Met0 (no metformin), 14 d) was found to be 1.89 ± 0.95 g. Further, in series [4] (Met0, 14 d), the final weight of the epididymal (EPI) is 0.89 ± 0.17 g and the final weight of the retroperitoneal (RP) came out at 0.27 ± 0.08 g. Also, the ISR response entry in series [5] was “do not show this response”. For the same compound, in series [6] (WAT of mice fed t10c12 CLA), the “UCP1 induced mRNA level, percentile of the most abundant mRNAs in the adipocyte” value is listed as 95 percentile; the “UCP2 induced mRNA level, percentile of the most abundant mRNAs in the adipocyte” value was 90 percentile; the “expression of key adipocyte lipid-related genes” value was “reduced expression”; the “mRNA levels of key fatty acid oxidation genes (CPT1, UCP1, UCP2)” value is reported as “increased mRNA levels”. In addition, the “inflammatory response (Cox2, cytokines)” value in series [6] (first several days of dietary t10c12 CLA, transient) is listed as “induce an inflammatory response”. Besides, the “total amount of ACC” value in series [1] (100 uM, 16 hr experiment) is recorded as “remained constant”. Besides, in [1] (setting [13]), the “level of phosphorylated ACC” value was “increased levels”. This compound yielded a Phospho-ACC amount in series [1] (2 hr) of 4.1. Moreover, the Phospho-ACC amount in [1] (8 hr) turned out to be 3.3. Besides, the ISR in liver result in [7] (compared with adipose tissue) is “weak ISR”. The “delipidation or inflammatory response in liver” value in series [7] (mice treated with t10c12 CLA) is on record as “lacked a significant delipidation or inflammatory response”. Further, the “MCP-1 induction relative to the LA control” value in [8] worked out at 23 fold. For the same compound, in [8] (LA = 1), the “MCP-1 mRNA levels” value amounted to 23. For the same compound, in [9] (Met0, 14 d), the change in body weight (BW) stood at 1.42 ± 0.46 g, the final weight of the epididymal (EPI) is 0.31 ± 0.07 g and the final weight of the retroperitoneal (RP) came out at 0.1 ± 0.01 g. Besides, the “total amount of AMPK” value in [2] (100 uM, 16 hr experiment) is reported as “remained constant”. Further, in series [2] (setting [13]), the “level of phosphorylated AMPK” value is given as “increased levels”. The “Phospho-AMPK Amount” value in series [2] (2 hr) was 6.0. Besides, in [2] (8 hr), the “Phospho-AMPK Amount” value was found to be 1.7. Moreover, the “reduction in triglyceride levels” value in series [3] (Example 2, CLA alone, vs LA control) amounted to 50%. Moreover, the “reduced triglyceride levels by, relative to the linoleic acid control” value in series [3] is on record as 25%.

Regarding `Cc1cc(SCc2sc(-c3ccc(C(F)(F)F)c(F)c3)nc2C)ccc1OCC(=O)O` [GW0742], in [3], the TG levels entry is recorded as “little effect on TG levels”.

On to `CC1=C(/C=C/C(C)=C/C=C/C(C)=C/C(=O)O)C(C)(C)CCC1` [ATRA, All trans retinoic acid], for which the TG levels result in [3] is given as “increased amounts of TG”.

As for `CN(C)C(=N)N=C(N)N` [Metformin], in [4], the “fat pad weights relative to control untreated mice” value was “increased fat pad weights”. The final weight of the epididymal (EPI) in series [4] (Met2 (2 mmol/L), 14 d) is 1.06 ± 0.13 g; in series [4] (Met20 (20 mmol/L), 14 d) it was 1.08 ± 0.12 g; in [9] (Met2 (2 mmol/L), 14 d) it was 0.59 ± 0.07 g; in series [9] (Met20 (20 mmol/L), 14 d) it was 0.48 ± 0.09 g. Besides, the final weight of the retroperitoneal (RP) in [4] (Met2 (2 mmol/L), 14 d) was 0.37 ± 0.1 g; in [4] (Met20 (20 mmol/L), 14 d), 0.33 ± 0.06 g; in series [9] (Met2 (2 mmol/L), 14 d) it was 0.23 ± 0.04 g; in series [9] (Met20 (20 mmol/L), 14 d), 0.23 ± 0.06 g. Also, the change in body weight (BW) stood at 2.89 ± 1 g in [4] (Met2 (metformin 2 mmol/L drinking water), 14 d); 2.54 ± 0.51 g in series [4] (Met20 (metformin 20 mmol/L drinking water), 14 d); 1.96 ± 0.9 g in series [9] (Met2 (2 mmol/L), 14 d); 2.82 ± 0.96 g in series [9] (Met20 (20 mmol/L), 14 d). Moreover, the “induction of inflammatory genes (CD14, Clcf1, Cox2, Csf1, MCP-1, Osmr, PAI, SOCS3)” value in series [10] is listed as “lower levels of induction”. The “MCP-1 induction relative to the LA control” value in [8] was “neither metformin nor AICAR alone produced a significant induction”.

In the case of `C[C@H](CC[C@@H]1OC1(C)C)[C@H]1CC[C@H]2[C@@H]3CC=C4C[C@@H](O)CC[C@]4(C)[C@H]3CC[C@]12C` [24(S),25-epoxycholesterol], the TG levels result in [3] is given as “did not reduce TG levels”.

`CC[C@H](C)C(=O)O[C@H]1CCC=C2C=C[C@H](C)[C@H](CC[C@@H]3C[C@@H](O)CC(=O)O3)[C@H]21` [mevastatin, Mevastatin]: the “reduced triglyceride levels by, relative to the linoleic acid control” value in series [3] stood at 10%.

As for `CC1=C(/C=C/C(C)=C/C=C/C(C)=C/CO)C(C)(C)CCC1` [vitamin A, retinol], in series [3], the TG levels result is reported as “little impact”.

In the case of `[H]/N=C(/N)N/C(=N/[H])NCCc1ccccc1` [Phenformin], in series [11], the lactic acidosis entry is “can cause toxic lactic acidosis”. Also, the p-AMPK levels entry in [2] (compared with metformin) is reported as “higher p-AMPK levels”. The delipidation result in series [3] (Example 9) is reported as “sufficient for the type of strong delipidation observed with t10c12 CLA treatments”. The inflammatory response result in [12] is given as “stronger than that observed with metformin”.

As to `NC(=O)c1ncn([C@@H]2O[C@H](CO)[C@@H](O)[C@H]2O)c1N` [AICAR, aminoimidazole carboxamide ribonucleotide, reference compound], the “MCP-1 induction relative to the LA control” value in series [8] was “neither metformin nor AICAR alone produced a significant induction”.
